#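 Compound exposure: 48 hours, 5 concentrations, 96-well plates. TGI: total growth inhibition.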
# Key:
# Test in all cases: DTP human tumour cell line panel, 48 h
# UACC-62 melanoma = tested on: UACC-62 melanoma
# EKVX NSCLC = tested on: EKVX NSCLC
# HT29 colon = tested on: HT29 colon
# T-47D breast = tested on: T-47D breast
# MDA-MB-435 = tested on: MDA-MB-435
# LOX IMVI melanoma = tested on: LOX IMVI melanoma
# SF-268 CNS = tested on: SF-268 CNS
# M14 melanoma = tested on: M14 melanoma
# RXF 393 renal = tested on: RXF 393 renal
# ACHN renal = tested on: ACHN renal
# CAKI-1 renal = tested on: CAKI-1 renal
# TK-10 renal = tested on: TK-10 renal
# KM12 colon = tested on: KM12 colon
# SF-295 CNS = tested on: SF-295 CNS
# NCI-H522 lung = tested on: NCI-H522 lung
# OVCAR-5 ovarian = tested on: OVCAR-5 ovarian
# HOP-62 NSCLC = tested on: HOP-62 NSCLC
# SK-OV-3 ovarian = tested on: SK-OV-3 ovarian
# PC-3 prostate = tested on: PC-3 prostate
# HCT-15 colon = tested on: HCT-15 colon
# OVCAR-4 ovarian = tested on: OVCAR-4 ovarian
# COLO 205 colon = tested on: COLO 205 colon
# IGROV1 ovarian = tested on: IGROV1 ovarian
# MDA-MB-231 breast = tested on: MDA-MB-231 breast
# OVCAR-8 ovarian = tested on: OVCAR-8 ovarian
# CCRF-CEM leukemia = tested on: CCRF-CEM leukemia
# MDA-N = tested on: MDA-N
# SK-MEL-28 melanoma = tested on: SK-MEL-28 melanoma
# UACC-257 melanoma = tested on: UACC-257 melanoma
# SN12C renal = tested on: SN12C renal
# HCT-116 colon = tested on: HCT-116 colon
# U251 CNS = tested on: U251 CNS
# SNB-75 CNS = tested on: SNB-75 CNS
# K-562 leukemia = tested on: K-562 leukemia
# NCI-H226 lung = tested on: NCI-H226 lung
# 786-0 renal = tested on: 786-0 renal
# HOP-92 NSCLC = tested on: HOP-92 NSCLC
# UO-31 renal = tested on: UO-31 renal
# A549 NSCLC = tested on: A549 NSCLC
# SK-MEL-2 melanoma = tested on: SK-MEL-2 melanoma
# A498 renal = tested on: A498 renal
# SNB-19 CNS = tested on: SNB-19 CNS
# NCI/ADR-RES ovarian = tested on: NCI/ADR-RES ovarian
# HS 578T breast = tested on: HS 578T breast
# SW-620 colon = tested on: SW-620 colon
# NCI-H23 lung = tested on: NCI-H23 lung
# SK-MEL-5 melanoma = tested on: SK-MEL-5 melanoma
# MOLT-4 leukemia = tested on: MOLT-4 leukemia
# DU-145 prostate = tested on: DU-145 prostate
# BT-549 breast = tested on: BT-549 breast
# OVCAR-3 ovarian = tested on: OVCAR-3 ovarian
# MALME-3M melanoma = tested on: MALME-3M melanoma
# RPMI-8226 leukemia = tested on: RPMI-8226 leukemia
# HL-60(TB) leukemia = tested on: HL-60(TB) leukemia
# MCF7 breast = tested on: MCF7 breast
# SF-539 CNS = tested on: SF-539 CNS
# NCI-H460 lung = tested on: NCI-H460 lung
smiles,measurement,setting,value
C[C@@H](CO)C1=C(O)c2ccc3c(c2C(=O)C1=O)CCCC3(C)C,TGI,UACC-62 melanoma,77.4 µM
same,TGI,EKVX NSCLC,> 100 µM
same,TGI,HT29 colon,> 100 µM
same,TGI,T-47D breast,> 100 µM
same,TGI,MDA-MB-435,> 100 µM
same,TGI,LOX IMVI melanoma,> 100 µM
same,TGI,SF-268 CNS,> 100 µM
same,TGI,M14 melanoma,40.6 µM
same,TGI,RXF 393 renal,> 100 µM
same,TGI,ACHN renal,43.2 µM
same,TGI,CAKI-1 renal,> 100 µM
same,TGI,TK-10 renal,> 100 µM
same,TGI,KM12 colon,> 100 µM
same,TGI,SF-295 CNS,> 100 µM
same,TGI,NCI-H522 lung,62.6 µM
same,TGI,OVCAR-5 ovarian,> 100 µM
same,TGI,HOP-62 NSCLC,> 100 µM
same,TGI,SK-OV-3 ovarian,> 100 µM
same,TGI,PC-3 prostate,> 100 µM
same,TGI,HCT-15 colon,> 100 µM
same,TGI,OVCAR-4 ovarian,> 100 µM
same,TGI,COLO 205 colon,> 100 µM
same,TGI,IGROV1 ovarian,> 100 µM
same,TGI,MDA-MB-231 breast,> 100 µM
same,TGI,OVCAR-8 ovarian,> 100 µM
same,TGI,CCRF-CEM leukemia,34 µM
same,TGI,MDA-N,> 100 µM
same,TGI,SK-MEL-28 melanoma,> 100 µM
same,TGI,UACC-257 melanoma,> 100 µM
same,TGI,SN12C renal,> 100 µM
same,TGI,HCT-116 colon,> 100 µM
same,TGI,U251 CNS,> 100 µM
same,TGI,SNB-75 CNS,> 100 µM
same,TGI,K-562 leukemia,> 100 µM
same,TGI,NCI-H226 lung,> 100 µM
same,TGI,786-0 renal,> 100 µM
same,TGI,HOP-92 NSCLC,> 100 µM
same,TGI,UO-31 renal,> 100 µM
same,TGI,A549 NSCLC,> 100 µM
same,TGI,SK-MEL-2 melanoma,84.7 µM
same,TGI,A498 renal,> 100 µM
same,TGI,SNB-19 CNS,68.9 µM
same,TGI,NCI/ADR-RES ovarian,> 100 µM
same,TGI,HS 578T breast,> 100 µM
same,TGI,SW-620 colon,> 100 µM
same,TGI,NCI-H23 lung,56.1 µM
same,TGI,SK-MEL-5 melanoma,> 100 µM
same,TGI,MOLT-4 leukemia,> 100 µM
same,TGI,DU-145 prostate,> 100 µM
same,TGI,BT-549 breast,> 100 µM
same,TGI,OVCAR-3 ovarian,> 100 µM
same,TGI,MALME-3M melanoma,50 µM
same,TGI,RPMI-8226 leukemia,> 100 µM
O=C1NC(N/N=C/c2cccs2)=N/C1=C\c1ccco1,TGI,UACC-62 melanoma,> 100 µM
same,TGI,EKVX NSCLC,> 100 µM
same,TGI,HT29 colon,> 100 µM
same,TGI,T-47D breast,> 100 µM
same,TGI,MDA-MB-435,90.4 µM
same,TGI,LOX IMVI melanoma,> 100 µM
same,TGI,SF-268 CNS,> 100 µM
same,TGI,M14 melanoma,> 100 µM
same,TGI,RXF 393 renal,> 100 µM
same,TGI,ACHN renal,> 100 µM
same,TGI,CAKI-1 renal,> 100 µM
same,TGI,TK-10 renal,> 100 µM
same,TGI,KM12 colon,> 100 µM
same,TGI,SF-295 CNS,> 100 µM
same,TGI,NCI-H522 lung,39.9 µM
same,TGI,OVCAR-5 ovarian,> 100 µM
same,TGI,HOP-62 NSCLC,> 100 µM
same,TGI,SK-OV-3 ovarian,70.6 µM
same,TGI,PC-3 prostate,> 100 µM
same,TGI,HCT-15 colon,> 100 µM
same,TGI,HL-60(TB) leukemia,> 100 µM
same,TGI,OVCAR-4 ovarian,> 100 µM
same,TGI,COLO 205 colon,> 100 µM
same,TGI,IGROV1 ovarian,> 100 µM
same,TGI,MDA-MB-231 breast,> 100 µM
same,TGI,OVCAR-8 ovarian,> 100 µM
same,TGI,CCRF-CEM leukemia,> 100 µM
same,TGI,MDA-N,13.6 µM
same,TGI,SK-MEL-28 melanoma,> 100 µM
same,TGI,UACC-257 melanoma,> 100 µM
same,TGI,SN12C renal,> 100 µM
same,TGI,HCT-116 colon,> 100 µM
same,TGI,U251 CNS,> 100 µM
same,TGI,SNB-75 CNS,> 100 µM
same,TGI,K-562 leukemia,> 100 µM
same,TGI,NCI-H226 lung,> 100 µM
same,TGI,786-0 renal,> 100 µM
same,TGI,MCF7 breast,> 100 µM
same,TGI,SF-539 CNS,> 100 µM
same,TGI,HOP-92 NSCLC,> 100 µM
same,TGI,UO-31 renal,> 100 µM
same,TGI,A549 NSCLC,> 100 µM
same,TGI,SK-MEL-2 melanoma,62.4 µM
same,TGI,A498 renal,82.5 µM
same,TGI,SNB-19 CNS,> 100 µM
same,TGI,NCI/ADR-RES ovarian,> 100 µM
same,TGI,HS 578T breast,76.7 µM
same,TGI,SW-620 colon,> 100 µM
same,TGI,NCI-H23 lung,> 100 µM
same,TGI,SK-MEL-5 melanoma,> 100 µM
same,TGI,MOLT-4 leukemia,> 100 µM
same,TGI,DU-145 prostate,> 100 µM
same,TGI,BT-549 breast,> 100 µM
same,TGI,OVCAR-3 ovarian,74.4 µM
same,TGI,NCI-H460 lung,> 100 µM
same,TGI,MALME-3M melanoma,> 100 µM
same,TGI,RPMI-8226 leukemia,94.8 µM

# — PubChem BioAssay (NCI)
